The results in this text go back to patent publication US20200055808A1, “COMPOSITION FOR USE IN DETECTING AN ALLERGY TO CLAVULANIC ACID” (SERVICIO ANDALUZ DE SALUD, priority 2016, published 2020).

Experiment [1] concerns basophils. The experiment can be described thus: Basophil activation test (BAT) by flow cytometry. It counts as cell-based, human. Conditions: for BAT result (stimulation index): 5, 1 and 0.2 mM, 25 patients selective for CLV and 15 tolerant controls, positive at the highest concentration, FIG. 3; for stimulation indices in patients compared to controls: 8, 4, 2, 1 mM, 7 patients positive for Clav 2 vs 6 controls, p=0.003 Clav 2 and p=0.015 Clav 5 at 8 mM, p=0.015 Clav 2 at 4 mM, FIG. 5. The source says:
The “basophil activation test” or “BAT” is an in vitro functional test which detects the activation of basophils after a stimulus with a specific antigen by detecting the expression of cell surface activation markers, which is usually monitored by flow cytometry using fluorescent monoclonal antibodies. Therefore, this test is used for the in vitro diagnosis of allergies. The technique comprises several steps: drawing blood and preparing the solution or suspension, performing stimulation with allergen(s), performing cellular marking with fluorescent antibodies which discriminate activated basophils, and performing counting in a flow cytometer. The technique can be carried out using as the substrate whole blood or the buffy coat previously isolated from the whole blood sample.
The BAT was performed as described by Torres M J et al. (Torres M J, et al. Clin Exp Allergy 2004; 34:1768-75) with CLV (Sigma Aldrich, Saint Louis, USA). […] The cells were stained with monoclonal antibodies, anti-CD63-FITC, CD203c-PE, CCR3-APC (Caltag Laboratories, Burlingame, Calif.), and measured in a FACSCalibur flow cytometer (Becton-Dickinson Bioscience, San José, Calif.) acquiring at least 500-1000 basophils per sample. The results were analyzed with FlowJo® software (Tree Star, Inc. USA), and the activation was expressed as a stimulation index (SI), calculated as the ratio between the percentage of activated basophils (CD63+ or CD203c+cells) in samples stimulated with different haptenes and non-stimulated sample. To calculate the SI, the percentage of spontaneously activated basophils was required to be equal to or greater than 5%, as described by Sanz M L et al. (Sanz M L, et al. Clin Exp Allergy 2002; 32:277-86).
Background: In flow cytometry, cells or beads pass a laser one at a time.

Experiment [2] relates to IgE-mediated basophil activation pathway. Briefly: BAT with wortmannin (WTM) inhibition of the IgE-mediated basophil activation pathway. It counts as cell-based, human. Conditions: WTM 1 μM; 8 mM: p=0.002 Clav2, p=0.001 Clav 5; 4 mM: p=0.001 both; FIG. 7. As to the method: To confirm that the activation of basophils was mediated by IgE, the inhibitory effect of wortmannin at 1 μM was analyzed. Wortmannin acts as a specific inhibitor of phosphatidylinositol 3-kinase (Pl3-K), which has proven to be one of the most important FceRI receptor-activated kinases involved in human basophil IgE-mediated stimulation. This was used with the positive control (anti-IgE) and the different haptenes and synthesized structures at the same concentrations described above.

The mark [3] stands for this setting: 15 tolerant subjects, cutoff SI CLV >1.5, Clav 2 >3 (ROC curves), FIG. 4.
Setting [4] is: 25 patients selective for CLV, cutoff SI CLV >1.5, Clav 2 >3 (ROC curves), FIG. 4.
The mark [5] stands for this setting: 6 tolerant controls, same cutoff point, FIG. 6.
[6] abbreviates: 7 patients positive for Clav 2 in the preceding test, same cutoff point, FIG. 6.

`O=C(O)[C@H]1/C(=C/CO)O[C@@H]2CC(=O)N21` [CLV, (3R,5R,Z)-2-(2-hydroxyethylidene)-7-oxo-1-oxa-4-aza-bicyclo[3.2.0]heptane-3-carboxylic acid, reference compound]: the “percentage of positive cases in BAT” value in experiment [1] (setting [3]) came to 13.3%; in experiment [1] (setting [4]), 24%.

Consider `CCCCNC(=O)CC(OC)OC` [Clav 1, N-butyl-3,3-dimethoxypropanamide], for which, in experiment [1] (first phase), the “BAT result (stimulation index)” value is reported as “only Clav 2 provided positive results”.

As for `CC(C)COC(=O)OC(=O)CC(=O)OC(=O)OCC(C)C` [Clav 2, bis-((isobutoxycarbonyl)oxy)-1,3-dioxopropanoic anhydride], the “percentage of positive cases in BAT” value in experiment [1] (setting [5]) is recorded as “no positive case”; in experiment [1] (setting [6]), 85.7%; in experiment [1] (setting [3]), 33.3%; in experiment [1] (setting [4]), 56%. For the same molecule, in experiment [1], the “stimulation indices in patients compared to controls” value is recorded as “higher stimulation indices”. The “BAT result (stimulation index)” value in experiment [1] (first phase) was “positive results”. The “stimulation index in patients compared to the tolerant controls” value in experiment [1] (first phase, 25 patients selective for CLV vs 15 tolerant controls, p<0.0001 (Mann-Whitney)) is given as “significantly higher”. Besides, the “basophil activation after prior incubation with WTM” value in experiment [2] was “IgE-mediated and specific”.

With `CCCCNC(=O)CCN` [Clav 3, 3-amino-N-butylpropanamide], the “BAT result (stimulation index)” value in experiment [1] (first phase) is listed as “only Clav 2 provided positive results”.

`NCCC(=O)O` [Clav 4, 3-aminopropanoic acid]: the “BAT result (stimulation index)” value in experiment [1] (first phase) is reported as “only Clav 2 provided positive results”.

As to `CCOC(CC(=O)OC(=O)CC(OCC)OCC)OCC` [Clav 5, 3,3-diethoxypropanoic anhydride], the figures for the “percentage of positive cases in BAT” value in experiment [1] (setting [5]) and in experiment [1] (setting [6]) were 28.6% and 71.4%, respectively. In experiment [1], the “stimulation indices in patients compared to controls” value is on record as “higher stimulation indices”. Also, the “basophil activation after prior incubation with WTM” value in experiment [2] is “IgE-mediated and specific”.
